Results from patent US20220106328A1, “HETEROCYCLIC COMPOUNDS” (Hoffmann-La Roche Inc., priority 2019, published 2022).

The compounds below were run against T1, MAGL (Homo sapiens, UniProt Q99685) (assay: 2-AG assay (MAGL inhibitory activity; hydrolysis of 2-arachidonoylglycerol to arachidonic acid followed by mass spectrometry)). Details: 8 μM 2-arachidonoylglycerol, 15 min pre-incubation, 30 min incubation at rt, RapidFire MS read-out.
T1 sequence (Q99685 1-303): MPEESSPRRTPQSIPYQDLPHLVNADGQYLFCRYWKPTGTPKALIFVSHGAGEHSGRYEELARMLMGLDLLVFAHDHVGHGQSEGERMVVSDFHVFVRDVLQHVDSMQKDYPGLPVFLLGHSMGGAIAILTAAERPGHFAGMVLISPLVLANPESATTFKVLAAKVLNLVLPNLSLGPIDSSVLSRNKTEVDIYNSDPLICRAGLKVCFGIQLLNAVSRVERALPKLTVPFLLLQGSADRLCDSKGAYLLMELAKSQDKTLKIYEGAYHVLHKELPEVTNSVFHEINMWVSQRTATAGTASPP
Type: biochemical
Description: Compounds were profiled for MAGL inhibitory activity by determining the enzymatic activity by following the hydrolysis of the natural substrate 2-arachidonoylglycerol resulting in arachidonic acid, which can be followed by mass spectrometry. This assay is hereinafter abbreviated “2-AG assay”.
A C18 SPE cartridge (G9205A) was used in an ACN/water liquid setup. […] The activity of the compounds was calculated based on the ratio of intensities [arachidonic acid/d8-arachidonic acid].

IC50 [nM]	SMILES
143	O=C1COC2CCN(C(=O)N3CC(OCc4ccc(C(F)(F)F)cc4F)C3)CC2N1 (single isomer, unassigned) [Example 6, (−)- or (+)-trans-6-[3-[[2-Fluoro-4-(trifluoromethyl)phenyl]methoxy]azetidine-1-carbonyl]-4,4a,5,7,8,8a-hexahydropyrido[4,3-b][1,4]oxazin-3-one]
58	O=C1CO[C@H]2CCN(C(=O)N3CC(c4ccc(CC(F)(F)F)cc4)C3)C[C@@H]2N1 (single isomer, unassigned) [Example 16, (−)- or (+)-trans-6-[3-[4-(2,2,2-Trifluoroethyl)phenyl]azetidine-1-carbonyl]-4,4a,5,7,8,8a-hexahydropyrido[4,3-b][1,4]oxazin-3-one]
118	O=C1CO[C@@H]2CCN(C(=O)N3CCC4(CC3)CC(Oc3ccc(C(F)(F)F)cc3F)C4)C[C@H]2N1 (single isomer, unassigned) [Example 26, (+)- or (−)-trans-6-[2-[2-Fluoro-4-(trifluoromethyl)phenoxy]-7-azaspiro[3.5]nonane-7-carbonyl]-4,4a,5,7,8,8a-hexahydropyrido[4,3-b][1,4]oxazin-3-one]
530	O=C1CO[C@H]2CCN(C(=O)N3CCC(c4cn(CCO)c5ccc(Cl)cc45)CC3)C[C@@H]2N1 (single isomer, unassigned) [Example 30, (−)- or (+)-trans-6-[4-[5-Chloro-1-(2-hydroxyethyl)indol-3-yl]piperidine-1-carbonyl]-4,4a,5,7,8,8a-hexahydropyrido[4,3-b][1,4]oxazin-3-one]
24	O=C1CO[C@@H]2CCN(C(=O)N3CC4(CC(Cc5ccc(F)cc5F)C4)C3)C[C@H]2N1 (single isomer, unassigned) [Example 17, (+)- or (−)-trans-6-[6-[(2,4-Difluorophenyl)methyl]-2-azaspiro[3.3]heptane-2-carbonyl]-4,4a,5,7,8,8a-hexahydropyrido[4,3-b][1,4]oxazin-3-one]
208	O=C1CO[C@@H]2CCN(C(=O)N3CCC(C(c4ccc(F)cc4)c4ccc(F)cc4)CC3)C[C@H]2N1 (single isomer, unassigned) [Example 24, (+)- or (−)-trans-6-[4-[Bis(4-fluorophenyl)methyl]piperidine-1-carbonyl]-4,4a,5,7,8,8a-hexahydropyrido[4,3-b][1,4]oxazin-3-one]
78	O=C1CO[C@H]2CCN(C(=O)N3CC(OCc4ccc(C(F)(F)F)cc4Cl)C3)C[C@@H]2N1 (single isomer, unassigned) [Example 21, (−)- or (+)-trans-6-[3-[[2-Chloro-4-(trifluoromethyl)phenyl]methoxy]azetidine-1-carbonyl]-4,4a,5,7,8,8a-hexahydropyrido[4,3-b][1,4]oxazin-3-one]
424	O=C1CO[C@@H]2CCN(C(=O)N3CC(c4ccc(OC(F)(F)F)c(Cl)c4)C3)C[C@H]2N1 (single isomer, unassigned) [Example 7, (+)- or (−)-trans-6-[3-[3-Chloro-4-(trifluoromethoxy)phenyl]azetidine-1-carbonyl]-4,4a,5,7,8,8a-hexahydropyrido[4,3-b][1,4]oxazin-3-one]
56	O=C1CO[C@H]2CCN(C(=O)N3CC(c4ccc(OC(F)(F)F)c(Cl)c4)C3)C[C@@H]2N1 (single isomer, unassigned) [Example 8, (−)- or (+)-trans-6-[3-[3-Chloro-4-(trifluoromethoxy)phenyl]azetidine-1-carbonyl]-4,4a,5,7,8,8a-hexahydropyrido[4,3-b][1,4]oxazin-3-one]
235	CC(C)(C)c1ccc(C2CN(C(=O)N3CCC4OCC(=O)NC4C3)C2)cc1 (single isomer, unassigned) [Example 1, (+)- or (−)-trans-6-[3-(4-tert-Butylphenyl)azetidine-1-carbonyl]-4,4a,5,7,8,8a-hexahydropyrido[4,3-b][1,4]oxazin-3-one]
920	O=C1CO[C@@H]2CCN(C(=O)N3CC(OCc4ccc(OC(F)(F)F)cc4)C3)C[C@H]2N1 (single isomer, unassigned) [Example 22, (+)- or (−)-trans-6-[3-[[4-(Trifluoromethoxy)phenyl]methoxy]azetidine-1-carbonyl]-4,4a,5,7,8,8a-hexahydropyrido[4,3-b][1,4]oxazin-3-one]
220	O=C1CO[C@@H]2CCN(C(=O)N3CC(OCc4ccc(C(F)(F)F)cc4Cl)C3)C[C@H]2N1 (single isomer, unassigned) [Example 20, (+)- or (−)-trans-6-[3-[[2-Chloro-4-(trifluoromethyl)phenyl]methoxy]azetidine-1-carbonyl]-4,4a,5,7,8,8a-hexahydropyrido[4,3-b][1,4]oxazin-3-one]
39	CC(C)(C)c1ccc(C2CN(C(=O)N3CCC4OCC(=O)NC4C3)C2)cc1 (single isomer, unassigned) [Example 2, (−)- or (+)-trans-6-[3-(4-tert-Butylphenyl)azetidine-1-carbonyl]-4,4a,5,7,8,8a-hexahydropyrido[4,3-b][1,4]oxazin-3-one]
95	O=C1COC2CCN(C(=O)N3CC(c4ccc(C5(C(F)(F)F)CC5)cc4)C3)CC2N1 (single isomer, unassigned) [Example 3, (+)- or (−)-trans-6-[3-[4-[1-(Trifluoromethyl)cyclopropyl]phenyl]azetidine-1-carbonyl]-4,4a,5,7,8,8a-hexahydropyrido[4,3-b][1,4]oxazin-3-one]
12	O=C1CO[C@H]2CCN(C(=O)N3CC4(CC(Cc5ccc(F)cc5F)C4)C3)C[C@@H]2N1 (single isomer, unassigned) [Example 18, (−)- or (+)-trans-6-[6-[(2,4-Difluorophenyl)methyl]-2-azaspiro[3.3]heptane-2-carbonyl]-4,4a,5,7,8,8a-hexahydropyrido[4,3-b][1,4]oxazin-3-one]
7	O=C1CO[C@H]2CCN(C(=O)N3CCC4(CC3)CC(Oc3ccc(C(F)(F)F)cc3F)C4)C[C@@H]2N1 (single isomer, unassigned) [Example 27, (−)- or (+)-trans-6-[2-[2-Fluoro-4-(trifluoromethyl)phenoxy]-7-azaspiro[3.5]nonane-7-carbonyl]-4,4a,5,7,8,8a-hexahydropyrido[4,3-b][1,4]oxazin-3-one]
15	O=C1COC2CCN(C(=O)N3CC(c4ccc(C5(C(F)(F)F)CC5)cc4)C3)CC2N1 (single isomer, unassigned) [Example 4, (−)- or (+)-trans-6-[3-[4-[1-(Trifluoromethyl)cyclopropyl]phenyl]azetidine-1-carbonyl]-4,4a,5,7,8,8a-hexahydropyrido[4,3-b][1,4]oxazin-3-one]
2560	O=C1CO[C@@H]2CCN(C(=O)N3CCC(Cc4ccc(C(F)(F)F)cc4)CC3)C[C@H]2N1 (single isomer, unassigned) [Example 28, (+)- or (−)-trans-6-[4-[[4-(Trifluoromethyl)phenyl]methyl]piperidine-1-carbonyl]-4,4a,5,7,8,8a-hexahydropyrido[4,3-b][1,4]oxazin-3-one]
2010	O=C(N1CC(OCc2ccc(C(F)(F)F)cc2F)C1)N1CC[C@H]2OCCN[C@@H]2C1 (racemic) [Example 31, [3-[[2-Fluoro-4-(trifluoromethyl)phenyl]methoxy]azetidin-1-yl]-[rac-(4aR,8aR)-2,3,4,4a,5,7,8,8a-octahydropyrido[4,3-b][1,4]oxazin-6-yl]methanone]
1300	O=C1CO[C@H]2CCN(C(=O)N3CCC(Cc4ccc(C(F)(F)F)cc4)CC3)C[C@@H]2N1 (single isomer, unassigned) [Example 29, (−)- or (+)-trans-6-[4-[[4-(Trifluoromethyl)phenyl]methyl]piperidine-1-carbonyl]-4,4a,5,7,8,8a-hexahydropyrido[4,3-b][1,4]oxazin-3-one]
47	O=C1CO[C@@H]2CCN(C(=O)N3CC(c4ccc(Oc5ccccc5)cc4)C3)C[C@H]2N1 (single isomer, unassigned) [Example 11, (+)- or (−)-trans-6-[3-(4-Phenoxyphenyl)azetidine-1-carbonyl]-4,4a,5,7,8,8a-hexahydropyrido[4,3-b][1,4]oxazin-3-one]
411	O=C1CO[C@H]2CCN(C(=O)N3CC(OCc4ccc(OC(F)(F)F)cc4)C3)C[C@@H]2N1 (single isomer, unassigned) [Example 23, (−)- or (+)-trans-6-[3-[[4-(Trifluoromethoxy)phenyl]methoxy]azetidine-1-carbonyl]-4,4a,5,7,8,8a-hexahydropyrido[4,3-b][1,4]oxazin-3-one]
32	O=C1CO[C@H]2CCN(C(=O)N3CC(c4ccc(Oc5ccccc5Cl)nc4)C3)C[C@@H]2N1 (single isomer, unassigned) [Example 19, (−)- or (+)-trans-6-[3-[6-(2-Chlorophenoxy)-3-pyridyl]azetidine-1-carbonyl]-4,4a,5,7,8,8a-hexahydropyrido[4,3-b][1,4]oxazin-3-one]
28	O=C1CO[C@H]2CCN(C(=O)N3CC(c4ccc(-c5ccc(F)cc5F)cc4)C3)C[C@@H]2N1 (single isomer, unassigned) [Example 14, (−)- or (+)-trans-6-[3-[4-(2,4-Difluorophenyl)phenyl]azetidine-1-carbonyl]-4,4a,5,7,8,8a-hexahydropyrido[4,3-b][1,4]oxazin-3-one]
